Laboratory results taken from publication PMC11768591 (Pharmaceutics, 2024).
≈ marks a conversion by molar mass, not a printed value.

How the values were obtained:
[1] = test system: inflammation induced by carrageenan; assay: Carrageenan-induced inflammation, paw volume by plethysmometer; assay type: in vivo, Male Wistar rats; conditions: rat
Experimental: (§1) The drugs were prepared fresh at the desired dose before administration. […] In the CFA-induced inflammation model, the rats were briefly anesthetized with isoflurane, via nose cone, titrated to the lowest dose necessary to achieve non-response to distal tail pinch. […] In both models, the paw volume was measured by a digital plethysmometer 7150 (Ugo Basile, Varese, Italy). To measure volume, the injected paw was marked around 1 cm above the tibiotarsal joint with an indelible pen. The paw was immersed up to the mark every time. […] In the […] studies, data were expressed as the average ± S.E.M. of 6 animals per experimental group. For the inflammation and hyperalgesia experiments, time courses of volume change (ΔV in μL) versus time (h) or paw withdrawal latency time (s) versus time (h) were generated, respectively. From the time courses, the area under the curve (AUC) was calculated using the trapezoidal rule as a measure of the duration and intensity of the effects observed with the different treatments. Then, AUC was employed to construct dose-response curves and to compare the different treatments.

[2] = test system: CFA-induced thermal hyperalgesia; assay: CFA-induced thermal hyperalgesia, paw withdrawal latency; assay type: in vivo, Male Wistar rats; conditions: rat, single oral dose 100 mg/kg
Experimental: (§2) CFA was administered at a concentration of 1 mg/mL and was previously dissolved in a mixture of paraffin oil (85%) and mannard monooleate (15%), whereas carrageenan was dissolved in an isotonic saline solution at 1%. The drugs were prepared fresh at the desired dose before administration.
(§3) The antihyperalgesic effect of the co-amorphous compound was evaluated using the thermal hyperalgesia model described by Dirig et al., with slight modifications. In this model, the rats were placed in acrylic observation chambers on a thin transparent glass plate maintained at a constant temperature of 30 °C. After a 30 min acclimatization period in the chambers, the animals received an intra-articular injection of 100 µL of CFA (1 mg/mL) or an intra-plantar injection of 50 µL of 1% carrageenan. Paw withdrawal latency to the thermal stimulus was measured before and 1, 2, 3, 4, 5 and 6 h after injection of CFA or carrageenan. To avoid tissue damage, a cutoff time of 20 s was used.
(§4) In the preclinic studies, data were expressed as the average ± S.E.M. of 6 animals per experimental group. […] From the time courses, the area under the curve (AUC) was calculated using the trapezoidal rule as a measure of the duration and intensity of the effects observed with the different treatments. […]

[3] = test system: carrageenan-induced thermal hyperalgesia; assay: Carrageenan-induced thermal hyperalgesia, paw withdrawal latency; assay type: in vivo, Male Wistar rats; conditions: rat, single oral dose 100 mg/kg
Experimental: as §2, §3, §4

[4] = test system: inflammation induced by Freund's complete adjuvant; assay: CFA-induced inflammation, paw volume by plethysmometer; assay type: in vivo, Male Wistar rats; conditions: rat
Experimental: as §1

[5] = Solubility in phosphate buffer pH 6.8 at 37.5 °C (supersaturated, UV/Vis 420 nm); assay type: physicochemical
Experimental: (§5) Then, 200 µL aliquots were taken for 1, 5, 10, 30 and 60 min. […] The solubility tests were performed in triplicate.

[6] = phosphate buffer at pH 7.2; cited from earlier work
[7] = Solubility in distilled water at 37.5 °C (supersaturated, UV/Vis 420 nm); assay type: physicochemical
Experimental: as §5

[8] = oral 100–320 mg/kg, 1 h before carrageenan
[9] = oral 100–320 mg/kg, 1 h before CFA
[10] = single oral dose 100 mg/kg (mixture: curcumin 51.4 mg/kg + L-arginine 48.6 mg/kg)

Row | Structure (SMILES) | effect on carrageenan-induced inflammation (paw volume change, AUC) [1, 8] | antihyperalgesic effect, CFA-induced thermal hyperalgesia (paw withdrawal latency) [2] | antihyperalgesic effect, carrageenan-induced thermal hyperalgesia (paw withdrawal latency) [3] | effect on CFA-induced inflammation (paw volume change, AUC) [4, 9] | effect on carrageenan-induced inflammation (paw volume change, AUC) [1, 10] | effect on CFA-induced inflammation (paw volume change, AUC) [4, 10] | solubility at 60 min ([5]; pH 6.8, after 60 min) [µg/mL] | solubility at 1 min ([5]; pH 6.8, aqueous buffer, thermodynamic from solid, after 1 min) [µg/mL] | half-life in solution [6] | solubility in distilled water ([7]; after 60 min) [µg/mL] | solubility at 1 min ([7]; distilled water, water, thermodynamic from solid, after 1 min) [µg/mL]
1 | N=C(N)NCCC[C@H](N)C(=O)O [L-arginine] | failed to reverse the inflammatory effects | not curcumin or L-arginine, significantly increased the latency time | antinociceptive effects that were statistically different from the vehicle group | failed to reverse the inflammatory effects | – | – | – | – | – | – | –
2 | O=C(O)Cc1ccccc1Nc1c(Cl)cccc1Cl [diclofenac] | – | – | – | – | have anti-inflammatory effects | have anti-inflammatory effects | – | – | – | – | –
3 | COc1cc(/C=C/C(=O)CC(=O)/C=C/c2ccc(O)c(OC)c2)ccc1O [curcumin] | failed to reverse the inflammatory effects | not curcumin or L-arginine, significantly increased the latency time | antinociceptive effects that were statistically different from the vehicle group | failed to reverse the inflammatory effects | – | – | 3.75 (≈ 10.2 µM) | 1.36 (≈ 3.69 µM) | around 10 min | 0.43 (≈ 1.17 µM) | 0.03 (≈ 0.0814 µM)
